The source of these data is ChEMBL document CHEMBL3611994, “Discovery of 4-benzoylamino-N-(prop-2-yn-1-yl)benzamides as novel microRNA-21 inhibitors” (Bioorg Med Chem, 2015).

The test system of data set [1] is Nucleic Acid. Put plainly: Inhibition of microRNA-21 in human HeLa cells assessed as reduction in microRNA-21 expression at 10 uM incubated for 24 hrs by stem-loop RT-PCR method. The data set is classed as cell-based.
In data set [2] the test system is Nucleic Acid. Kind of data set: Inhibition of microRNA-21 in human HeLa cells assessed as increase in PDCD4 protein expression at 10 uM incubated for 48 hrs by Western blot method. The data set is classed as cell-based.
The subject of data set [3] is U-87 MG. Put plainly: Induction of apoptosis in human U87MG cells assessed as late apoptotic cells level at 10 uM incubated for 48 hrs in presence of 50 uM H2O2 by Annexin V-FITC and propidium iodide staining based flow cytometry (reference value: 2.6%). The data set is classed as functional, U-87MG ATCC. For orientation: Flow cytometry measures light scatter and fluorescence of single cells or particles in a stream.

For data set [4], the system named is HeLa. Put plainly: Effect on universal miRNA biosynthesis pathway-related gene expression in human HeLa assessed as DROSHA gene expression at 10 uM incubated for 24 hrs by RT-qPCR method. The data set is classed as cell-based. In general terms: In qPCR the cycle at which signal appears reflects the starting amount.
Data set [5] has as its system U-87 MG. Put plainly: Inhibition of cell proliferation of human U87MG cells assessed as induction of retardation of cell proliferation at 10 uM incubated for 48 hrs in presence of 50 uM H2O2 by CFSE staining based FACS method. The data set is classed as functional. As to conditions: U-87MG ATCC.
The subject of data set [6] is Nucleic Acid. Put plainly: Inhibition of microRNA-21 in human HeLa cells assessed as reduction in microRNA-21 expression at 10 uM incubated for 6 to 48 hrs by stem-loop RT-PCR method. The data set is classed as cell-based.
The test system of data set [7] is Nucleic Acid. Put plainly: Inhibition of microRNA-25 in human HeLa cells assessed as reduction in microRNA-21 expression at 10 uM incubated for 24 hrs by RT-qPCR method. The data set is classed as cell-based.
Data set [8] relates to Nucleic Acid. Kind of data set: Inhibition of microRNA-126 in human HeLa cells assessed as reduction in microRNA-21 expression at 10 uM incubated for 24 hrs by RT-qPCR method. The data set is classed as cell-based.
For data set [9], the system named is Nucleic Acid. Kind of data set: Inhibition of microRNA-148 in human HeLa cells assessed as reduction in microRNA-21 expression at 10 uM incubated for 24 hrs by RT-qPCR method. The data set is classed as cell-based.
The subject of data set [10] is HeLa. Kind of data set: Induction of apoptosis in human HeLa cells assessed as necrotic cells level at 10 uM incubated for 48 hrs in presence of 50 uM H2O2 by Annexin V-FITC and propidium iodide staining based flow cytometry (reference value: 1.2%). The data set is classed as functional.
For data set [11], the system named is U-87 MG. Kind of data set: Inhibition of cell proliferation of human U87MG cells assessed as induction of retardation of cell proliferation at 10 uM incubated for 48 hrs by CFSE staining based FACS method. The data set is classed as functional. Conditions: U-87MG ATCC.
The test system of data set [12] is Nucleic Acid. Put plainly: Inhibition of microRNA-152 in human HeLa cells assessed as reduction in microRNA-21 expression at 10 uM incubated for 24 hrs by RT-qPCR method. The data set is classed as cell-based.
The subject of data set [13] is HeLa. Kind of data set: Effect on universal miRNA biosynthesis pathway-related gene expression in human HeLa assessed as TARBP2 gene expression at 10 uM incubated for 24 hrs by RT-qPCR method. The data set is classed as ADME, cell-based.
In data set [14] the test system is HeLa. Kind of data set: Effect on universal miRNA biosynthesis pathway-related gene expression in human HeLa assessed as XPO5 gene expression at 10 uM incubated for 24 hrs by RT-qPCR method. The data set is classed as cell-based.
Data set [15] deals with HeLa. Put plainly: Induction of apoptosis in human HeLa cells assessed as necrotic cells level at 10 uM incubated for 48 hrs by Annexin V-FITC and propidium iodide staining based flow cytometry (reference value: 1.2%). The data set is classed as functional.
The test system of data set [16] is Nucleic Acid. Kind of data set: Inhibition of microRNA-26 in human HeLa cells assessed as reduction in microRNA-21 expression at 10 uM incubated for 24 hrs by RT-qPCR method. The data set is classed as cell-based.
Data set [17] concerns U-87 MG. Put plainly: Induction of apoptosis in human U87MG cells assessed as early apoptotic cells level at 10 uM incubated for 48 hrs in presence of 50 uM H2O2 by Annexin V-FITC and propidium iodide staining based flow cytometry (reference value: 2%). The data set is classed as functional, U-87MG ATCC.
Data set [18] relates to U-87 MG. Put plainly: Induction of apoptosis in human U87MG cells assessed as late apoptotic cells level at 10 uM incubated for 48 hrs by Annexin V-FITC and propidium iodide staining based flow cytometry (reference value: 2.6%). The data set is classed as functional, U-87MG ATCC.
Data set [19] relates to Nucleic Acid. Kind of data set: Inhibition of microRNA-143 in human HeLa cells assessed as reduction in microRNA-21 expression at 10 uM incubated for 24 hrs by RT-qPCR method. The data set is classed as cell-based.
Data set [20] has as its system HeLa. Kind of data set: Induction of apoptosis in human HeLa cells assessed as viable cells level at 10 uM incubated for 48 hrs in presence of 50 uM H2O2 by Annexin V-FITC and propidium iodide staining based flow cytometry (reference value: 93.7%). The data set is classed as functional.
The test system of data set [21] is HeLa. Put plainly: Inhibition of let-7a miRNA in human HeLa cells assessed as reduction in microRNA-21 expression at 10 uM incubated for 24 hrs by RT-qPCR method. The data set is classed as cell-based.
Data set [22] relates to Nucleic Acid. Kind of data set: Inhibition of microRNA-146 in human HeLa cells assessed as reduction in microRNA-21 expression at 10 uM incubated for 24 hrs by RT-qPCR method. The data set is classed as cell-based.
Data set [23] deals with U-87 MG. Kind of data set: Induction of apoptosis in human U87MG cells assessed as necrotic cells level at 10 uM incubated for 48 hrs in presence of 50 uM H2O2 by Annexin V-FITC and propidium iodide staining based flow cytometry (reference value: 1.3%). The data set is classed as functional, U-87MG ATCC.
Data set [24] has as its system HeLa. Put plainly: Effect on universal miRNA biosynthesis pathway-related gene expression in human HeLa assessed as DGCR8 gene expression at 10 uM incubated for 24 hrs by RT-qPCR method. The data set is classed as cell-based.
The subject of data set [25] is HeLa. Put plainly: Induction of apoptosis in human HeLa cells assessed as late apoptotic cells level at 10 uM incubated for 48 hrs in presence of 50 uM H2O2 by Annexin V-FITC and propidium iodide staining based flow cytometry (reference value: 2.2%). The data set is classed as functional.
For data set [26], the system named is HeLa. Kind of data set: Induction of apoptosis in human HeLa cells assessed as early apoptotic cells level at 10 uM incubated for 48 hrs by Annexin V-FITC and propidium iodide staining based flow cytometry (reference value: 2.9%). The data set is classed as functional.
In data set [27] the test system is Nucleic Acid. Put plainly: Inhibition of microRNA-195 in human HeLa cells assessed as reduction in microRNA-21 expression at 10 uM incubated for 24 hrs by RT-qPCR method. The data set is classed as cell-based.
Data set [28] has as its system Nucleic Acid. Put plainly: Inhibition of microRNA-21 in human HeLa cells assessed as reduction in microRNA-21 expression at 2.5 to 20 uM incubated for 24 hrs by stem-loop RT-PCR method. The data set is classed as cell-based.
In data set [29] the test system is Nucleic Acid. Kind of data set: Inhibition of microRNA-133 in human HeLa cells assessed as reduction in microRNA-21 expression at 10 uM incubated for 24 hrs by RT-qPCR method. The data set is classed as cell-based.
Data set [30] relates to HeLa. Put plainly: Induction of apoptosis in human HeLa cells assessed as early apoptotic cells level at 10 uM incubated for 48 hrs in presence of 50 uM H2O2 by Annexin V-FITC and propidium iodide staining based flow cytometry (reference value: 2.9%). The data set is classed as functional.
The subject of data set [31] is HeLa. Put plainly: Inhibition of cell proliferation of human HeLa cells assessed as induction of retardation of cell proliferation at 10 uM incubated for 48 hrs by CFSE staining based FACS method. The data set is classed as functional.
Data set [32] concerns U-87 MG. Kind of data set: Induction of apoptosis in human U87MG cells assessed as early apoptotic cells level at 10 uM incubated for 48 hrs by Annexin V-FITC and propidium iodide staining based flow cytometry (reference value: 2%). The data set is classed as functional, U-87MG ATCC.
Data set [33] has as its system HeLa. Put plainly: Effect on universal miRNA biosynthesis pathway-related gene expression in human HeLa assessed as AGO2 gene expression at 10 uM incubated for 24 hrs by RT-qPCR method. The data set is classed as cell-based.
Data set [34] deals with U-87 MG. Put plainly: Induction of apoptosis in human U87MG cells assessed as viable cells level at 10 uM incubated for 48 hrs in presence of 50 uM H2O2 by Annexin V-FITC and propidium iodide staining based flow cytometry (reference value: 94.1%). The data set is classed as functional, U-87MG ATCC.
The subject of data set [35] is HeLa. Put plainly: Effect on universal miRNA biosynthesis pathway-related gene expression in human HeLa assessed as DICER1 gene expression at 10 uM incubated for 24 hrs by RT-qPCR method. The data set is classed as cell-based.
Data set [36] concerns Nucleic Acid. Put plainly: Inhibition of microRNA-145 in human HeLa cells assessed as reduction in microRNA-21 expression at 10 uM incubated for 24 hrs by RT-qPCR method. The data set is classed as cell-based.
Data set [37] concerns U-87 MG. Kind of data set: Induction of apoptosis in human U87MG cells assessed as viable cells level at 10 uM incubated for 48 hrs by Annexin V-FITC and propidium iodide staining based flow cytometry (reference value: 94.1%). The data set is classed as functional, U-87MG ATCC.
In data set [38] the test system is U-87 MG. Put plainly: Inhibition of cell proliferation of human U87MG cells assessed as time required for cell doubling by measuring mean fluorescence intensity at 10 uM incubated for 48 hrs in presence of 50 uM H2O2 by CFSE staining based FACS method. The data set is classed as functional. Conditions: U-87MG ATCC.
In data set [39] the test system is HeLa. Kind of data set: Induction of apoptosis in human HeLa cells assessed as viable cells level at 10 uM incubated for 48 hrs by Annexin V-FITC and propidium iodide staining based flow cytometry (reference value: 93.7%). The data set is classed as functional.
For data set [40], the system named is U-87 MG. Kind of data set: Induction of apoptosis in human U87MG cells assessed as necrotic cells level at 10 uM incubated for 48 hrs by Annexin V-FITC and propidium iodide staining based flow cytometry (reference value: 1.3%). The data set is classed as functional, U-87MG ATCC.
Data set [41] has as its system U-87 MG. Put plainly: Inhibition of cell proliferation of human U87MG cells assessed as time required for cell doubling by measuring mean fluorescence intensity at 10 uM incubated for 48 hrs by CFSE staining based FACS method. The data set is classed as functional. Conditions: U-87MG ATCC.
Data set [42] relates to HeLa. Kind of data set: Inhibition of cell proliferation of human HeLa cells assessed as induction of retardation of cell proliferation at 10 uM incubated for 48 hrs in presence of 50 uM H2O2 by CFSE staining based FACS method. The data set is classed as functional.
For data set [43], the system named is HeLa. Put plainly: Induction of apoptosis in human HeLa cells assessed as late apoptotic cells level at 10 uM incubated for 48 hrs by Annexin V-FITC and propidium iodide staining based flow cytometry (reference value: 2.2%). The data set is classed as functional.

Calls of active or inactive are those of the source. No cut-off for these calls is given here.

As to `C#CCNC(=O)c1ccc(NC(=O)c2ccc(OC)c(OCc3ccccc3)c2)cc1`, the inhibition entry in [1] was “Active”.
On to `C#CCNC(=O)c1ccc(NC(=O)c2cc(OC)ccc2OC)cc1`, for which the inhibition result in data set [1] is “Active”.
On to `C#CCNC(=O)c1ccc(/N=N/c2ccccc2)cc1`, for which the inhibition entry in data set [1] and in [2] was “Active” throughout.
Turning to `C#CCNC(=O)c1ccc(NC(=O)c2cccc(I)c2)cc1`, the inhibition entry in data set [1] was “Active”.
Consider `C#CCNC(=O)c1ccc(NC(=O)c2ccc(OC)cc2OC)cc1`, for which the inhibition entry in [1] was “Active”.
Take `C#CCNC(=O)c1ccc(NC(=O)c2ccccc2Br)cc1`: the Activity is given as 10.2% in data set [3]; “Non-toxic” in [4]; 4.5% in data set [10]; “Non-toxic” in data set [13]; “Non-toxic” in [14]; 1.5% in data set [15]. Also, the Activity in [17] was 3.9%; in data set [18], 4%; in data set [20], 67.5%; in data set [23], 3.5%; in [24], “Non-toxic”; in data set [25] it was 19.1%. For the same compound, the Activity is 3.5% in data set [26]; 8.9% in data set [30]; 2.3% in data set [32]; “Non-toxic” in data set [33]; 82.4% in [34]; “Non-toxic” in [35]. Besides, the Activity in data set [37] was found to be 91.9%; in data set [39], 91.6%; in [40] it was 1.7%; in [43], 3.4%. The inhibition result in data set [5], in [6], in [11], in data set [1], in data set [2] and in data set [28] was “Active” in each case. The inhibition result in data set [31], in data set [38], in data set [41] and in data set [42] was “Active” throughout. In addition, the inhibition result in [7], in data set [8], in data set [9], in [12], in data set [16] and in data set [19] was “inactive” each time. Also, the inhibition entry in data set [21], in data set [22], in data set [27], in data set [29] and in data set [36] was “inactive” throughout.
`C#CCNC(=O)c1ccc(NC(=O)c2cccnc2)cc1`: the inhibition entry in data set [1] was “Active”.
